Measured values taken from patent US11254640B2, “N-substituted indoles and other heterocycles for treating brain disorders” (The Regents of the University of California, priority 2019, dated 2022).
“Also recorded” adds a separate entry of the source.

Columns and labels:
5HT2A sensor [1] = assay: 5HT2A sensor assay, antagonist mode (sLight1.3s HEK293T stable line); assay type: cell-based; conditions: 10 μM of compound (FIG. 13)
Description: In some embodiments, the 5HT2A sensor assay is in an antagonist mode.
(§1) 5HT2A Sensor Assays. HEK293T (ATCC) 5HT2A sensor stable line (sLight1.3s) was generated via lentiviral transduction of HIV-EF1α-sLight1.3 and propagated from a single colony. Lentivirus was produced using 2nd generation lentiviral plasmids pHIV-EF1α-sLight1.3, pHCMV-G, and pCMV-deltaR8.2.
(§2) For the screening of the 41 compounds, sLight1.3s cells were plated in 96-well plates at a density of 40000 24-hours prior to imaging. On the day of imaging, compounds solubilized in DMSO were diluted from the 100 mM stock solution to working concentrations of 1 mM, 100 μM and 1 μM with a DMSO concentration of 1%. Immediately prior to imaging, cells growing in DMEM (Gibco) were washed 2× with HBSS (Gibco) and in agonist mode 180 μL of HBSS or in antagonist mode 160 μL of HBSS was added to each well after the final wash. For agonist mode, images were taken before and after the addition of the 20 μL compound working solution into the wells containing 180 μL HBSS. This produced final compound concentrations of 100 μM, 10 μM and 100 nM with a DMSO concentration of 0.1%. For antagonist mode, images were taken before and after addition of 20 μL of 900 nM 5-HT and again after 20 μL of the compound working solutions to produce final concentrations of 100 nM for 5HT and 100 μM, 10 μM and 100 nM for the compounds with a DMSO concentration of 0.1%. Each compound was tested in triplicates (3 wells) for each concentration (100 μM, 10 μM and 100 nM). Additionally, within each plate, 100 nM 5HT and 0.1% DMSO controls were also imaged.
(§3) Imaging was performed using the Leica DMi8 inverted microscope with a 40× objective using the FITC preset with an excitation of 460 nm and emission of 512-542 nm. For each well, the cellular membrane where the 5HT2A sensor is targeted was autofocused using the adaptive focus controls and 5 images from different regions within the well were taken with each image processed from a 2×2 binning.
(§4) For data processing, the membranes from each image was segmented and analyzed using a custom algorithm written in MATLAB producing a single raw fluorescence intensity value. For each well the 5 raw fluorescence intensity values generated from the 5 images were averaged and the change in fluorescence intensity (dFF) was calculated as: dFF=(Fsat−Fapo)/Fapo
(§5) For both agonist and antagonist modes, the fluorescence intensity values before compound addition in HBSS only were used as the Fapo values while the fluorescence intensity values after compound addition were used as the Fsat values.
(§6) For agonist mode, data are as percent activation relative to 5HT, where 0 is the average of the DMSO wells and 100 is the average of the 100 uM 5HT wells. For antagonist mode, the inactivation score was calculated as: Inactivation score=(dFFF(Compound+5HT)−dFF(5HT))/dFF(5HT)

5HT2A sensor [2] = assay: 5HT2A sensor assay, agonist mode (sLight1.3s HEK293T stable line); assay type: cell-based; conditions: for activation of 5HT2A sensor assay in agonist mode at 10 μM: 10 μM of compound (FIG. 11)
Description: In some embodiments, hallucinogenic potential of a compound of the present invention is determined in vitro. In some embodiments, hallucinogenic potential of a compound of the present invention is determined using a 5HT2A sensor assay. In some embodiments, the 5HT2A sensor assay is in an agonist mode or an antagonist mode. In some embodiments, the 5HT2A sensor assay is in an agonist mode.
as §1, §2, §3, §4, §5, §6

cortical neurons = assay: Dendritogenesis assay, Sholl analysis; assay type: cell-based, rat; conditions: 10 μM; for Emax at 10 µM: Rattus norvegicus, Cortical neurone, Nmax with vehicle (DMSO) = 0% and ketamine = 100%, read-out: % efficacy in sholls; for dendritic arbor complexity / neuronal growth (Nmax of Sholl plots): cortical neurons
Excerpt: Dendritogenesis Assays. Phenotypic screening has historically proven more successful than target-based approaches for identifying drugs with novel mechanisms of action. Having established a simple and robust method for accessing isoDMT analogs, tested next was their ability to increase dendritic arbor complexity in cultures of cortical neurons using a phenotypic assay. Following treatment, neurons were fixed and visualized using an antibody against MAP2—a cytoskeletal protein localized to the somatodendritic compartment of neurons. Sholl analysis was then performed, and the maximum number of crossings (Nmax) was used as a quantitative metric of dendritic arbor complexity. For statistical comparisons between specific compounds, the raw Nmax values were compared. Percent efficacies were determined by setting the Nmax values for the vehicle (DMSO) and positive (ketamine) controls equal to 0% and 100%, respectively.
Animals. For the dendritogenesis experiments, timed pregnant Sprague Dawley rats were obtained from Charles River Laboratories (Wilmington, Mass.). For the head-twitch response assay, male and female C57BL/6J mice were obtained from Jackson Laboratory (Sacramento, Calif.). Mice were housed in a temperature and humidity-controlled room maintained on a 12-h light/dark cycle in groups of 4-5 (same sex). Animals weighed between 17 and 30 g at the time of the experiments. All experimental procedures involving rodents were approved by the UC Davis Institutional Animal Care and Use Committee (IACUC) and adhered to principles described in the National Institutes of Health Guide for the Care and Use of Laboratory Animals. The University of California, Davis and the University of California, San Francisco are accredited by the Association for Assessment and Accreditation of Laboratory Animal Care International (AAALAC).
Dendritogenesis—Sholl Analysis. Dendritogenesis experiments were performed following a previously published method with slight modifications. Neurons were plated in 96-well format (200 μL of media per well) at a density of approximately 15,000 cells/well in Neurobasal (Life Technologies) containing 1% penicillin-streptomycin, 10% heat-inactivated fetal bovine serum, and 0.5 mM glutamine. After 24 h, the medium was replaced with Neurobasal containing 1× B27 supplement (Life Technologies), 1% penicillin-streptomycin, 0.5 mM glutamine, and 12.5 μM glutamate. After 3 days in vitro (DIV3), the cells were treated with compounds. All compounds tested in the dendritogenesis assays were treated at 10 μM unless noted otherwise. Stock solutions of the compounds in DMSO were first diluted 100-fold in Neurobasal before an additional 10-fold dilution into each well (total dilution=1:1000; 0.1% DMSO concentration). Treatments were randomized. After 1 h, the media was removed and replaced with new Neurobasal media containing 1× B27 supplement, 1% penicillin-streptomycin, 0.5 mM glutamine, and 12.5 μM glutamate. The cells were allowed to grow for an additional 71 h. At that time, neurons were fixed by removing 80% of the media and replacing it with a volume of 4% aqueous paraformaldehyde (Alfa Aesar) equal to 50% of the working volume of the well. Then, the cells were incubated at room temperature for 20 min before the fixative was aspirated and each well washed twice with DPBS. Cells were permeabilized using 0.2% Triton X-100 (ThermoFisher) in DPBS for 20 minutes at room temperature without shaking. Plates were blocked with antibody diluting buffer (ADB) containing 2% bovine serum albumin (BSA) in DPBS for 1 h at room temperature. Then, plates were incubated overnight at 4° C. with gentle shaking in ADB containing a chicken anti-MAP2 antibody (1:10,000; EnCor, CPCA-MAP2). The next day, plates were washed three times with DPBS and once with 2% ADB in DPBS. […]

| SMILES | activation of 5HT2A sensor assay in agonist mode at 10 μM (5HT2A sensor [2]) | Emax at 10 µM (cortical neurons) [%] | further results |
| --- | --- | --- | --- |
| CCN(CC)C(=O)[C@@H]1C=C2c3cccc4[nH]c(Br)c(c34)C[C@H]2N(C)C1 [BOL148, reference compound] | do not activate the 5HT2A sensor assay in agonist mode |  | competition with 5HT binding to 5HT2A, antagonist mode sensor assay at 10 μM (5HT2A sensor [1]): compete with 5HT binding to 5HT2A |
| COc1cc(CC(C)N)c(OC)cc1I (stereo not shown) [DOI, reference compound] | activate the 5HT2A sensor assay in agonist mode |  |  |
| CN(C)CCc1c[nH]c2ccccc12 [Example 1, N,N-dimethyltryptamine, reference compound] | activate the 5HT2A sensor assay in agonist mode | 79 |  |
| CCN(CC)CCc1c[nH]c2cc(F)ccc12 [Example 6-F-DET, reference compound] | do not activate the 5HT2A sensor assay in agonist mode |  | competition with 5HT binding to 5HT2A, antagonist mode sensor assay at 10 μM (5HT2A sensor [1]): compete with 5HT binding to 5HT2A |
| CN(C)CCn1ccc2c(OCc3ccccc3)cccc21 [Example 8, 2-(4-(benzyloxy)-1H-indol-1-yl)-N,N-dimethylethan-1-amine] |  | 38 |  |
| CN(C)CCn1ccc2cc(OCc3ccccc3)ccc21 [Example 9, 2-(5-(benzyloxy)-1H-indol-1-yl)-N,N-dimethylethan-1-amine] |  | 78 |  |
| CN(C)CCn1ccc2ccc(OCc3ccccc3)cc21 [Example 10, 2-(6-(benzyloxy)-1H-indol-1-yl)-N,N-dimethylethan-1-amine] |  | 65 |  |
| CN(C)CCn1ccc2cccc(OCc3ccccc3)c21 [Example 11, 2-(7-(benzyloxy)-1H-indol-1-yl)-N,N-dimethylethan-1-amine] |  | 131 |  |
| CN(C)CCn1ccc2c(F)cccc21 [Example 12, 2-(4-fluoro-1H-indol-1-yl)-N,N-dimethylethan-1-amine] |  | 37 |  |
| CN(C)CCn1ccc2cc(F)ccc21 [Example 13, 2-(5-fluoro-1H-indol-1-yl)-N,N-dimethylethan-1-amine] |  | 75 | dendritic arbor complexity / neuronal growth (Nmax of Sholl plots) (cortical neurons): performed identically to 28 and 29 |
| CN(C)CCn1ccc2cccc(F)c21 [Example 15, 2-(7-fluoro-1H-indol-1-yl)-N,N-dimethylethan-1-amine] |  | 85 |  |
| CN(C)CCn1ccc2cc(F)c(F)cc21 [Example 17, 2-(5,6-difluoro-1H-indol-1-yl)-N,N-dimethylethan-1-amine] |  | 84 |  |
| CN(C)CCn1ccc2c(F)cc(F)cc21 [Example 18, 2-(4,6-difluoro-1H-indol-1-yl)-N,N-dimethylethan-1-amine] |  | 62 |  |
| CN(C)CCn1cc(C(=O)C(=O)N(C)C)c2ccccc21 [Example 21, 2-(1-(2-(dimethylamino)ethyl)-1H-indol-3-yl)-N,N-dimethyl-2-oxoacetamide] |  | 72 | dendritic arbor complexity / neuronal growth (Nmax of Sholl plots) (cortical neurons): well tolerated |
| CN(C)CCn1cccc1 [Example 23, N,N-dimethyl-2-(1H-pyrrol-1-yl)ethan-1-amine] |  | 64 | dendritic arbor complexity / neuronal growth (Nmax of Sholl plots) (cortical neurons): minimal effect on the ability of these molecules to promote neuronal growth |
| CC(C)CCn1ccc2ccccc21 [Example 25, 1-isopentyl-1H-indole] |  | 17 | dendritic arbor complexity / neuronal growth (Nmax of Sholl plots) (cortical neurons): did not promote dendritogenesis |
| CN(C)CCc1cn(C)c2ccccc12 [Example 27, N,N-dimethyl-2-(1-methyl-1H-indol-3-yl)ethan-1-amine, reference compound] |  | 73 | dendritic arbor complexity / neuronal growth (Nmax of Sholl plots) (cortical neurons): increase dendritic arbor complexity to a comparable extent as DMT (1); also recorded: increased dendritic arbor complexity to a comparable extent as 1 |
| CN(C)CCc1c[nH]c2cc(F)ccc12 [Example 29, 2-(6-fluoro-1H-indol-3-yl)-N,N-dimethylethan-1-amine, reference compound] |  | 81 |  |
| COc1ccc2c(ccn2C[C@@H](C)N(C)C)c1 [Example 32, (R)-1-(5-methoxy-1H-indol-1-yl)-N,N-dimethylpropan-2-amine] |  | 88 |  |
| C[C@H](Cn1ccc2cc(F)ccc21)N(C)C [Example 33, (R)-1-(5-fluoro-1H-indol-1-yl)-N,N-dimethylpropan-2-amine] |  | 65 |  |
| O=C(c1ccc(F)cc1)C1CCN(CCn2c(=O)[nH]c3ccccc3c2=O)CC1 [Ketanserin, reference compound] | do not activate the 5HT2A sensor assay in agonist mode |  | competition with 5HT binding to 5HT2A, antagonist mode sensor assay at 10 μM (5HT2A sensor [1]): compete with 5HT binding to 5HT2A |
| CNC(C)Cc1ccc2c(c1)OCO2 [L-MDMA, reference compound] | do not activate the 5HT2A sensor assay in agonist mode |  |  |
| CCN(CC)C(=O)[C@@H]1C=C2c3cccc4[nH]cc(c34)C[C@H]2N(C)C1 [LSD, lysergic acid diethylamide, reference compound] | activate the 5HT2A sensor assay in agonist mode |  | activation of 5HT2A sensor assay in agonist mode (dose response) (5HT2A sensor [2]; dose response (FIG. 10)): activate |
| CN[C@H](C)Cc1ccc2c(c1)OCO2 [R-MDMA, reference compound] | do not activate the 5HT2A sensor assay in agonist mode |  |  |
